The record followed here is patent US9688676B2, “Tyrosine kinase inhibitors” (PRINCIPIA BIOPHARMA INC., priority 2015, dated 2017).

For orientation: IC50 means the concentration that gives 50% inhibition.

The target of assay [1] is T1, BTK (Homo sapiens (Human), UniProt Q06187). Kind of assay: Determination of drug-kinase residence time (TR-FRET tracer competition, occupancy after washout). In kind it is binding. The settings on record: 1.5 μM compound, 500 nM BTK; for % occupany at 1 h: 1 h of washout; for % occupany at 6 h: 6 h of washout; for % occupany at 24 h: 24 h of washout. The method, then:
The experiment was conducted in a buffer consisting of 50 mM Hepes pH 7.5, 10 mM MgCl2, 0.01% Triton X-100, and 1 mM EGTA.
The mixture was then diluted 5-fold by addition of 40 μL of buffer. […] In order to probe for reversibility of the kinase-compound binding interaction, a competition solution containing both a high affinity fluorescent tracer and an antibody coupled to Europium was prepared. […] The competition solution also contained 80 nM of an Anti-polyhistidine antibody coupled to Europium (Invitrogen Cat. #PV5596) which is designed to bind the polyhistidine purification tag in BTK.
It is to be expected that covalent and slow dissociating inhibitors will block binding of the tracer while rapidly dissociating non-covalent inhibitors will not. […] Data were plotted at percentage of signal obtained in the absence of competitor compound. The background signal was obtained by omission of BTK from the reaction. […] If the compound is a reversible covalent inhibitor, the tracer will bind the target as the compound dissociates from the target.
Background: In TR-FRET formats the signal depends on donor and acceptor labels being close together.

The target of assay [2] is T1, BTK. Put plainly: BTK enzymatic activity assay (Caliper-based kinase assay). In kind it is biochemical. The settings on record: human recombinant BTK 0.5 nM, ATP 16 μM, 3 h room temperature. How it is done:
A Caliper-based kinase assay (Caliper Life Sciences, Hopkinton, Mass.) was used to measure inhibition of BTK kinase activity of a compound of the present disclosure. […] The reaction was then terminated with EDTA, final concentration 20 mM and the phosphorylated reaction product was quantified on a Caliper Desktop Profiler (Caliper LabChip 3000). […] This value is presented as the IC50.

T1 sequence (Q06187 whole entry): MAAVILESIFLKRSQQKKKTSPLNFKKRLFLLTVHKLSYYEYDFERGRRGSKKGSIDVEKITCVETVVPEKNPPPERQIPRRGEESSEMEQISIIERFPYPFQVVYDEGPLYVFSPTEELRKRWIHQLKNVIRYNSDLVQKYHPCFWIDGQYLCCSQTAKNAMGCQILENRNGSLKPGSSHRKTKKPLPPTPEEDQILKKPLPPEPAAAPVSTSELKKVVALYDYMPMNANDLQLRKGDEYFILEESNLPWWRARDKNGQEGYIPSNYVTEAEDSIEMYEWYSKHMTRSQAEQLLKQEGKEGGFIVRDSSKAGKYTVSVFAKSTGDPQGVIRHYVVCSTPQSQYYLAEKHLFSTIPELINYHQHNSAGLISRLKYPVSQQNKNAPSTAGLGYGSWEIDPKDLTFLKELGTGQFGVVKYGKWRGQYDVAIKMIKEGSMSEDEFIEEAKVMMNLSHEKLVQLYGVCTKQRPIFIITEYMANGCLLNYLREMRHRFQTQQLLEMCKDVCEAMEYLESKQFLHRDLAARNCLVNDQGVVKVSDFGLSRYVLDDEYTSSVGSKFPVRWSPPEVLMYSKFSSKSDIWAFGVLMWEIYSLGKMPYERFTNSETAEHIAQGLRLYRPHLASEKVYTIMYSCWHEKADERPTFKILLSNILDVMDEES

Regarding `N#CC(=CC1CCOCC1)C(=O)N1CCC[C@@H](n2c(=O)n(-c3ccc(Oc4ccccc4)cc3)c3c(N)nccc32)C1` [Compound 2, (R)-2-(3-(4-amino-2-oxo-3-(4-phenoxyphenyl)-2,3-dihydro-1H-imidazo[4,5-c]pyridin-1-yl)piperidine-1-carbonyl)-3-(tetrahydro-2H-pyran-4-yl)acrylonitrile], on BTK [1], the “% occupany at 1 h” value was 93.602%, the “% occupany at 6 h” value is 85.49% and the “% occupany at 24 h” value amounted to 65.826%. For the same molecule, the half-maximal inhibitory concentration (IC50) on BTK [2] is 9.1 nM.
The matching figures for `CC1(C=C(C#N)C(=O)N2CCC[C@@H](n3c(=O)n(-c4ccc(Oc5ccccc5)cc4)c4c(N)nccc43)C2)CCC1` [Compound 3, (R)-2-(3-(4-amino-2-oxo-3-(4-phenoxyphenyl)-2,3-dihydro-1H-imidazo[4,5-c]pyridin-1-yl)piperidine-1-carbonyl)-3-(1-methylcyclobutyl)acrylonitrile]: 65.626%, 58.519%, 46.073% and 21.6 nM.
For `CC(C)(C=C(C#N)C(=O)N1CCC[C@@H](n2c(=O)n(-c3ccc(Oc4ccccc4)cc3)c3c(N)nccc32)C1)N1CCN(CC(F)(F)F)CC1` [Compound 6, (R)-2-(3-(4-amino-2-oxo-3-(4-phenoxyphenyl)-2,3-dihydro-1H-imidazo[4,5-c]pyridin-1-yl)piperidine-1-carbonyl)-4-methyl-4-(4-(2,2,2-trifluoroethyl)piperazin-1-yl)pent-2-enenitrile], on BTK [1], the “% occupany at 1 h” value turned out to be 94.404%, the “% occupany at 6 h” value was 86.64% and the “% occupany at 24 h” value was 67.505%. Besides, the 50% inhibitory concentration (IC50) at BTK [2] turned out to be 5.9 nM.
Regarding `CC(C)(C=C(C#N)C(=O)N1CCC[C@@H](n2c(=O)n(-c3ccc(Oc4ccccc4)cc3)c3c(N)nccc32)C1)N1CCOCC1` [Compound 4, (R)-2-(3-(4-amino-2-oxo-3-(4-phenoxyphenyl)-2,3-dihydro-1H-imidazo[4,5-c]pyridin-1-yl)piperidine-1-carbonyl)-4-methyl-4-morpholinopent-2-enenitrile], at BTK [1], the “% occupany at 1 h” value turned out to be 90.005%, the “% occupany at 6 h” value is listed as 66.344% and the “% occupany at 24 h” value amounted to 18.2%. The IC50 on BTK [2] amounted to 7.8 nM.
The matching figures for `CC#CC(=O)N1CCC[C@@H](n2c(=O)n(-c3ccc(Oc4ccccc4)cc3)c3c(N)nccc32)C1` [Compound 17, (R)-4-amino-1-(1-(but-2-ynoyl)piperidin-3-yl)-3-(4-phenoxyphenyl)-1H-imidazo[4,5-c]pyridin-2(3H)-one]: 81.247%, 78.623%, 74.744% and 13.3 nM.
The matching figures for `CC(C)(C=C(C#N)C(=O)N1CCC[C@H]1Cn1c(=O)n(-c2ccc(Oc3ccccc3)cc2)c2c(N)nccc21)N1CCN(C2COC2)CC1` [Compound 13, (S)-2-(2-((4-amino-2-oxo-3-(4-phenoxyphenyl)-2,3-dihydro-1H-imidazo[4,5-c]pyridin-1-yl)methyl)pyrrolidine-1-carbonyl)-4-methyl-4-(4-(oxetan-3-yl)piperazin-1-yl)pent-2-enenitrile]: 91.54%, 83.963%, 49.152% and 21.1 nM.
The matching figures for `CC(C)(C)C=C(C#N)C(=O)N1CCC[C@H]1Cn1c(=O)n(-c2ccc(Oc3ccccc3)cc2)c2c(N)nccc21` [Compound 12, (S)-2-(2-((4-amino-2-oxo-3-(4-phenoxyphenyl)-2,3-dihydro-1H-imidazo[4,5-c]pyridin-1-yl)methyl)pyrrolidine-1-carbonyl)-4,4-dimethylpent-2-enenitrile]: 95.906%, 96.44%, 90.847% and 6.6 nM.
In the case of `CN1CCN(C(C)(C)C=C(C#N)C(=O)N2CCC[C@@H](n3c(=O)n(-c4ccc(Oc5ccccc5)cc4)c4c(N)nccc43)C2)CC1=O` [Compound 18, (R)-2-(3-(4-amino-2-oxo-3-(4-phenoxyphenyl)-2,3-dihydro-1H-imidazo[4,5-c]pyridin-1-yl)piperidine-1-carbonyl)-4-methyl-4-(4-methyl-3-oxopiperazin-1-yl)pent-2-enenitrile], on BTK [1], the “% occupany at 1 h” value was determined as 93.065%, the “% occupany at 6 h” value is 73.513% and the “% occupany at 24 h” value turned out to be 31.704%. Further, at BTK [2], the IC50 came out at 3.7 nM.
Taken in the same sequence, the figures for `COC(=O)N1CCN(C(C)(C)C=C(C#N)C(=O)N2CCC[C@@H](n3c(=O)n(-c4ccc(Oc5ccccc5)cc4)c4c(N)nccc43)C2)CC1` [Compound 10, (R)-methyl 4-(5-(3-(4-amino-2-oxo-3-(4-phenoxyphenyl)-2,3-dihydro-1H-imidazo[4,5-c]pyridin-1-yl)piperidin-1-yl)-4-cyano-2-methyl-5-oxopent-3-en-2-yl)piperazine-1-carboxylate] were 94.392%, 77.985%, 49.145% and 7 nM.
As for `CC(C)(C=C(C#N)C(=O)N1CCC[C@@H](n2c(=O)n(-c3ccc(Oc4ccccc4)cc3)c3c(N)nccc32)C1)N1CCN(C2COC2)CC1` [Compound 5, (R)-2-(3-(4-amino-2-oxo-3-(4-phenoxyphenyl)-2,3-dihydro-1H-imidazo[4,5-c]pyridin-1-yl)piperidine-1-carbonyl)-4-methyl-4-(4-(oxetan-3-yl)piperazin-1-yl)pent-2-enenitrile], on BTK [1], the “% occupany at 1 h” value is 93.773%, the “% occupany at 6 h” value worked out at 83.103% and the “% occupany at 24 h” value was determined as 57.488%. The half-inhibitory concentration (IC50) at BTK [2] amounted to 2.5 nM.
The matching figures for `N#CC(=CC1CCC1)C(=O)N1CCC[C@@H](n2c(=O)n(-c3ccc(Oc4ccccc4)cc3)c3c(N)nccc32)C1` [Compound 8, (R)-2-(3-(4-amino-2-oxo-3-(4-phenoxyphenyl)-2,3-dihydro-1H-imidazo[4,5-c]pyridin-1-yl)piperidine-1-carbonyl)-3-cyclobutylacrylonitrile]: 93.335%, 89.195%, 80.873% and 23.9 nM.
The matching figures for `CN1CCC(C(C)(C)C=C(C#N)C(=O)N2CCC[C@@H](n3c(=O)n(-c4ccc(Oc5ccccc5)cc4)c4c(N)nccc43)C2)CC1` [Compound 7, (R)-2-(3-(4-amino-2-oxo-3-(4-phenoxyphenyl)-2,3-dihydro-1H-imidazo[4,5-c]pyridin-1-yl)piperidine-1-carbonyl)-4-methyl-4-(1-methylpiperidin-4-yl)pent-2-enenitrile]: 61.932%, −1.3946%, −12.344% and 1.8 nM.
Taken in the same sequence, the figures for `COC(=O)N1CCN(C(C)(C)C=C(C#N)C(=O)N2CCC[C@H]2Cn2c(=O)n(-c3ccc(Oc4ccccc4)cc3)c3c(N)nccc32)CC1` [Compound 15, (S)-methyl 4-(5-(2-((4-amino-2-oxo-3-(4-phenoxyphenyl)-2,3-dihydro-1H-imidazo[4,5-c]pyridin-1-yl)methyl)pyrrolidin-1-yl)-4-cyano-2-methyl-5-oxopent-3-en-2-yl)piperazine-1-carboxylate] were 91.927%, 85.356%, 50.188% and 72.3 nM.
With `COCCN1CCN(C(C)(C)C=C(C#N)C(=O)N2CCC[C@@H](n3c(=O)n(-c4ccc(Oc5ccccc5)cc4)c4c(N)nccc43)C2)CC1` [Compound 9, (R)-2-(3-(4-amino-2-oxo-3-(4-phenoxyphenyl)-2,3-dihydro-1H-imidazo[4,5-c]pyridin-1-yl)piperidine-1-carbonyl)-4-(4-(2-methoxyethyl)piperazin-1-yl)-4-methylpent-2-enenitrile], on BTK [1], the “% occupany at 1 h” value was determined as 93.363%, the “% occupany at 6 h” value amounted to 70.733% and the “% occupany at 24 h” value is given as 31.4%. The IC50 on BTK [2] was found to be 7.8 nM.
Taken in the same sequence, the figures for `CC(C)(C=C(C#N)C(=O)N1CCC[C@H]1Cn1c(=O)n(-c2ccc(Oc3ccccc3)cc2)c2c(N)nccc21)N1CCOCC1` [Compound 14, (S)-2-(2-((4-amino-2-oxo-3-(4-phenoxyphenyl)-2,3-dihydro-1H-imidazo[4,5-c]pyridin-1-yl)methyl)pyrrolidine-1-carbonyl)-4-methyl-4-morpholinopent-2-enenitrile] were 91.481%, 76.396%, 22.922% and 17.2 nM.
On to `CO[C@H]1CCN(C(C)(C)C=C(C#N)C(=O)N2CCC[C@@H](n3c(=O)n(-c4ccc(Oc5ccccc5)cc4)c4c(N)nccc43)C2)C1` [Compound 59, 2-((R)-3-(4-amino-2-oxo-3-(4-phenoxyphenyl)-2,3-dihydro-1H-imidazo[4,5-c]pyridin-1-yl)piperidine-1-carbonyl)-4-((S)-3-methoxypyrrolidin-1-yl)-4-methylpent-2-enenitrile], for which, on BTK [2], the 50% inhibitory concentration (IC50) worked out at 2.6 nM.
